The experiment addresses T1, Na-K-ATPase (Bos taurus, UniProt Q08DA1).
T1 construct: 86Rb uptake
The experiment can be described thus: Microassay: inhibition of ^86 Rb uptake by MDBK cell cultures. Format: cell-based, bovine. From the text:
Such a cell line is available from the American Type Culture Collection, 12301 Park Lawn Drive, Rockville, Md. 20852. USA, where it is identified by the reference ATCC CCL34 (certified cell line). The preferred method of assaying bioactivity according to the present invention, described in Example II below, employs a microassay which is based upon the ability of the natriuretic compound of the present invention to inhibit ^86 Rb influx by MDBK cells grown in culture. Ouabain (10^-5 M) is used as the reference inhibitor.
The natriuretic activity of the Natriuretic Hormone can be ascertained by its effect on the uptake of ^86 Rb by MDBK ([…] Bovine Kidney Cell) cultures. […]
Approximately 200,000 MDBK cells were plated in trays containing 12 […] wells, and grown for four days at 37° C. in Dulbecco's modified Eagle media (DMEM) (Gibco #430-2100), to which was added (per liter) 3.7 g sodium bicarbonate, 5 mg phenol red, 10% fetal calf serum, 10^6 units penicillin-G sulfate, 0.1 g equivalent base streptomycin sulfate, 7.34 mg polymyxin-B sulfate, and 3.4 mg fungizone and maintained in an atmosphere of 5% CO2, 95% air. […] 0.5 ml of 5% TCA was added to each well and incubated for 10 minutes at 37° C. to release radioactivity inside the cells. […] The ^86 Rb activity was counted in a scintillation counter (Beckman LS 3-801). […] Data were recorded as cpm/mg cell protein. […]

Structures are written as SMILES. Several values for one entry are separate records, joined by “and”; a condition that tells them apart may be missing. Equal entries are not always repeated.

As a reminder, the inhibition is the drop in the measured response relative to a control, in per cent. `C[C@@H]1O[C@@H](O[C@H]2C[C@@H](O)[C@]3(CO)[C@H]4[C@H](O)C[C@]5(C)[C@@H](C6=CC(=O)OC6)CC[C@]5(O)[C@@H]4CC[C@]3(O)C2)[C@H](O)[C@H](O)[C@H]1O` [Ouabain]: the “^86 Rb uptake, cpm/mg of protein” value (10^-5 M ouabain, positive control, run in duplicate) was 17,649 cpm/mg of protein and 15,611 cpm/mg of protein. Further, the inhibition at 10 µM (MDBK, read-out: % inhibition of ^86 Rb uptake) was 77.7%.
